According to patent publication US20250255945A1, “CLICK CHEMISTRY HLA POLYPEPTIDES” (IMMUNEO Therapeutics GmbH, priority 2024, published 2025):

Columns and labels:
[1] = tested on: prostate cancer with bone metastases; assay: Case study Example 4: immunization of a subject with prostate cancer and bone metastases with PrCa-PC1/PrCa-PC2; assay type: in vivo, human; conditions: after 70 days
Protocol: • Subject: A person • Date of Admission: Oct. 4, 2022 • Complaints: Urinary urgency, interrupted urination, nocturia, and erectile dysfunction
• PSA Level: 99.77 ng/mL (See FIG. 9A) • MRI Examination: Moderately enlarged prostate with extensive, organ-crossing, and infiltrating prostate cancer on the left side. • PSMA-PET Examination: Involvement of the middle gland and apex on the left periphery, infiltrating the left seminal vesicles. No PSMA positive lymph node metastases found, but sclerotic bone metastases reported (See FIG. 9B). • First Biopsies: Taken from bone metastases in the area of the lateral mass of the left sacrum. Pathological assessment confirmed malignant prostatic origin.
• Step (a): the pharmaceutical composition comprising the 12 synthetic HLA tumor antigen polypeptides and XS15 as adjuvant were synthesized as chemical peptides, • Step (b): the 12 HLA tumor antigen polypeptides were mixed in 25% DMSO/H2O application solution and divided multiple vial units of […] each, Dose per HLA tumor antigen polypeptide: 300 μg
• Step (a): the pharmaceutical composition comprising the 7 synthetic HLA tumor antigen polypeptides and XS15 as adjuvant were synthesized as chemical peptides, • Step (b): the 7 HLA tumor antigen polypeptides were mixed in 25% DMSO/H2O application solution and divided multiple vial units of 1 ml each, Dose per HLA tumor antigen polypeptide: 300 μg […]

[2] = tested on: peripheral blood mononuclear cells (PBMCs); assay: IFN-γ ELISPOT assay (ex vivo) with subject PBMCs; assay type: cell-based, human; conditions: for response rate in ELIspot on addition of a DACP: Example 3 subject PBMCs, compared to the HTAPP without DACP
Protocol: IFNγ ELISpot analysis (for protocol see A. Lalvani, R. Brookes, S. Hambleton, W. J. Britton, A. V. S. Hill, A. J. McMichael, J Exp Med 1997; 186 (6): 859-865) was performed ex vivo (without further in vitro culturing for expansion) using PBMCs depleted of CD4+ and enriched for CD8+ T cells (CD8+ effectors), or depleted of CD8+ and enriched for CD4+ T cells (CD4+ effectors). Tests were performed in duplicate and with a positive and negative control, Multiscreen filter plates (Merck Millipore) pre-coated with IFNγ-specific antibodies (ELISpotPro kit, Mabtech). 267.000 Cells were used per plate. Plates were scanned using an AID Classic Robot ELISPOT Reader and analyzed by AID ELISPOT 7.0 software (AID Autoimmun Diagnostika). Antigen Peptides (except negative and positive control group) were done in duplicates, spot counts were taken as mean values of each duplicate.
The immunogenicity of each of the six peptides was analyzed by IFN-γ secretion by subject peripheral blood mononuclear cells (PBMCs) using ELIspot assay. […]
The immunogenicity of each peptide was assessed in peripheral blood mononuclear cells (PBMCs) from patients and using the IFN-γ-ELISPOT assay. ELISPOT results were considered positive if the number of spots was at least 2-fold higher than the negative control (medium) and at least 50 spots were detected. […] We also tested the effect of delivery aiding peptides (DACP-1) and peptide extension by overlapping tandemization and tandemization on the immunogenicity of the epitopes.

[3] = Table 2, HTAPP-DACP, response in ELISPOT experiments
[4] = Table 4, HTAPP-DACP related to group therapy
[5] = Table 6, further HTAPPs, HTAPP-DACPs and reference sequences
[6] = Table 5, HTAPP-DACP related to group therapy
[7] = Table 1, HTAPPs, response in ELISPOT experiments

With `CC(O)(CS(=O)(=O)c1ccc(F)cc1)C(=O)Nc1ccc(C#N)c(C(F)(F)F)c1` (stereo not drawn) [Bicalutamide] the “tolerability (discontinuation)” value [1] was “side effects”.
For “26 (IPDEYGNTALHYAIYNEDKLMRQIKIWFQNRRMKWKK) [compound 26]”, the “Elispot [nspots/pM]” value [2, 3] was 347,5 nspots/pM.
With “51 (LLGRNSFEVHVCACPGRDRRQIKIWFQNRRMKWKK) [compound 51]” the “Elispot [nspots/pM]” value [2, 4] was 264,2 nspots/pM.
With “83 (QSYPGSASLAAYSGMPRISKLRQIKIWFQNRRMKWKK) [compound 83]” the “Elispot [nspots/pM]” value [2, 5] was 367,5 nspots/pM.
“45 (KIGDFGLATEKSRWSGSHQRQIKIWFQNRRMKWKK) [compound 45]” was tested, and the “Elispot [nspots/pM]” value [2, 4] was 55,0 nspots/pM.
For 74 (SPITSVLSADLFPKA) [compound 74], the “Elispot [nspots/pM]” value [2, 5] was 128,5 nspots/pM.
With 77 (KKIRKPRTIYSSLQLQA) [compound 77] the “Elispot [nspots/pM]” value [2, 5] was 148,0 nspots/pM.
In the case of “41 (HTLYGHTSTVHCMHLHEKRVRQIKIWFQNRRMKWKK) [compound 41]”, the “Elispot [nspots/pM]” value [2, 4] is reported as 39,2 nspots/pM.
In the case of 78 (GIYDALFDIESKVDPSK) [compound 78], the “Elispot [nspots/pM]” value [2, 5] is reported as 134,5 nspots/pM.
“84 (PPSNATAETQPIPQKAAYLEAIFLRDWDSLYSHDLDTSADS) [compound 84]” was tested, and the “Elispot [nspots/pM]” value [2, 5] was 197,5 nspots/pM.
In the case of “70 (ESGCEERGAAMIQTVDPAAHRQIKIWFQNRRMKWKK) [compound 70]”, the “Elispot [nspots/pM]” value [2, 5] is reported as 153,5 nspots/pM.
“24 (RERRVASWAMSFERLRQIKIWFQNRRMKWKK) [compound 24]” was tested, and the “Elispot [nspots/pM]” value [2, 3] was 436,0 nspots/pM.
In the case of “64 (STRDPLSEITKQEKDFLWSHRQIKIWFQNRRMKWKK) [compound 64]”, the “Elispot [nspots/pM]” value [2, 6] is reported as 80,8 nspots/pM.
For 3 (LQEFRRFQDPGRIVAIV) [compound 3], the “Elispot [nspots/pM]” value [2, 7] was 246,0 nspots/pM.
For “18 (KLVVVGAVGVGKSALTIRQIKIWFQNRRMKWKK) [compound 18]”, the “Elispot [nspots/pM]” value [2, 3] was 447,5 nspots/pM.
“44 (KAISTRDPLSKITEQEKDFLWRQIKIWFQNRRMKWKK) [compound 44]” was tested, and the “Elispot [nspots/pM]” value [2, 4] was 103,3 nspots/pM.
With “6 (NVGLSAVCTYNLSTAAAYCIHSINLHNFSNSVL) [compound 6]” the “Elispot [nspots/pM]” value [2, 7] was 330,5 nspots/pM.
For “58 (NSSCMGGMNWRPILTIITLRQIKIWFQNRRMKWKK) [compound 58]”, the “Elispot [nspots/pM]” value [2, 6] was 228,3 nspots/pM.
“50 (LLGRNSFEVCVCACPGRDRRQIKIWFQNRRMKWKK) [compound 50]” was tested, and the “Elispot [nspots/pM]” value [2, 4] was 256,7 nspots/pM.
“71 (QRQLNTALPQPFREAPAYSNRQIKIWFQNRRMKWKK) [compound 71]” was tested, and the “Elispot [nspots/pM]” value [2, 5] was 270,5 nspots/pM.
“46 (KLVVVGACGVGKSALTIQLIQNHRQIKIWFQNRRMKWKK) [compound 46]” was tested, and the “Elispot [nspots/pM]” value [2, 4] was 54,2 nspots/pM.
With “36 (EYKLVVVGAVGVGKSALTIQRQIKIWFQNRRMKWKK) [compound 36]” the “Elispot [nspots/pM]” value [2, 4] was 140 nspots/pM.
With “47 (KLVVVGADGVGKSALTIQLIQNHRQIKIWFQNRRMKWKK) [compound 47]” the “Elispot [nspots/pM]” value [2, 4] was 120,0 nspots/pM.
69 (VAFLGCPGFAGVLQT) [compound 69] was tested, and the “Elispot [nspots/pM]” value [2, 5] was 149,0 nspots/pM.
“25 (RQRLALEAEKAAYEERGAAEALSVVRQIKIWFQNRRMKWKK) [compound 25]” was tested, and the “Elispot [nspots/pM]” value [2, 3] was 317,5 nspots/pM.
In the case of “56 (MTEYKLVVVGASGVGKSALTIQLIQNHRQIKIWFQNRRMKWKK) [compound 56]”, the “Elispot [nspots/pM]” value [2, 6] is reported as 56,7 nspots/pM.
In the case of “65 (TEYKLVVVGAAGVGKSALTIQRQIKIWFQNRRMKWKK) [compound 65]”, the “Elispot [nspots/pM]” value [2, 6] is reported as 22,5 nspots/pM.
For “67 (YGIPFIETSTKTRQRVEDARQIKIWFQNRRMKWKK) [compound 67]”, the “Elispot [nspots/pM]” value [2, 6] was 248,3 nspots/pM.
“KLVVVGAVGVGKSALTIRQIKIWFQNRRMKWKK [SEQ-ID-No.: 18]” was tested, and the “response rate in ELIspot on addition of a DACP” value [2] was “increase in the response rate”.
For “28 (SPRQCSSWTLAAYKLAAFPTSLRQIKIWFQNRRMKWKK) [compound 28]”, the “Elispot [nspots/pM]” value [2, 3] was 320,0 nspots/pM.
For “27 (LFKDLGLPARTVSTTFRQIKIWFQNRRMKWKK) [compound 27]”, the “Elispot [nspots/pM]” value [2, 3] was 196,0 nspots/pM.
For “35 (EYFMKQMNDARHGGWTTKMDRQIKIWFQNRRMKWKK) [compound 35]”, the “Elispot [nspots/pM]” value [2, 4] was 20,0 nspots/pM.
“14 (SPRQCSSWTLAAYKLAAFPTSL) [compound 14]” was tested, and the “Elispot [nspots/pM]” value [2, 7] was 137,5 nspots/pM.
In the case of “30 (KDYSVLYVVPGPVRFQRQIKIWFQNRRMKWKK) [compound 30]”, the “Elispot [nspots/pM]” value [2, 3] is reported as 234,0 nspots/pM.
For “53 (MAQYLSTLLLLLATLAVALRQIKIWFQNRRMKWKK) [compound 53]”, the “Elispot [nspots/pM]” value [2, 6] was 190,8 nspots/pM.
For “8 (KKIRKPRTIYSSLQLQAAAYGIYDALFDIESKVDPSK) [compound 8]”, the “Elispot [nspots/pM]” value [2, 7] was 351,5 nspots/pM.
With “42 (ICLTSTVQLIMQLMPFGCLLRQIKIWFQNRRMKWKK) [compound 42]” the “Elispot [nspots/pM]” value [2, 4] was 20,8 nspots/pM.
With 11 (SPLTGGNMAF) [compound 11] the “Elispot [nspots/pM]” value [2, 7] was 145,5 nspots/pM.
In the case of “37 (GACRHGDRCSRLHNKPTFSRQIKIWFQNRRMKWKK) [compound 37]”, the “Elispot [nspots/pM]” value [2, 4] is reported as 47,5 nspots/pM.
“32 (AAKALMSAFYTFRYPLSLRQIKIWFQNRRMKWKK) [compound 32]” was tested, and the “Elispot [nspots/pM]” value [2, 4] was 75,8 nspots/pM.
“62 (RVCACPGRDWRTEEENLRKRQIKIWFQNRRMKWKK) [compound 62]” was tested, and the “Elispot [nspots/pM]” value [2, 6] was 279,2 nspots/pM.
With “61 (QHVKITDFGRAKLLGAEEKRQIKIWFQNRRMKWKK) [compound 61]” the “Elispot [nspots/pM]” value [2, 6] was 76,7 nspots/pM.
With “LQEFRRFQDPGRIVAIVRQIKIWFQNRRMKWKK [SEQ-ID-No.: 20]” the “response rate in ELIspot on addition of a DACP” value [2] was “increase in the response rate”.
For “79 (AIYNEDKLMAKALLLYGADIERQIKIWFQNRRMKWKK) [compound 79]”, the “Elispot [nspots/pM]” value [2, 5] was 242,5 nspots/pM.
For “29 (HRCATITHLLAAYYLVLNFNKKRQIKIWFQNRRMKWKK) [compound 29]”, the “Elispot [nspots/pM]” value [2, 3] was 342,5 nspots/pM.
“66 (TIHYNYMCNSSCMGSMNRRPILTIRQIKIWFQNRRMKWKK) [compound 66]” was tested, and the “Elispot [nspots/pM]” value [2, 6] was 13,3 nspots/pM.
With “33 (ATYLWWVNNQSLPVSPRAAYLLLTASLLTFWNPRQIKIWFQNRRMKWKK) [compound 33]” the “Elispot [nspots/pM]” value [2, 4] was 271,7 nspots/pM.
In the case of “68 (YKLVVVGAGDVGKSALTIQLIQNHFVDRQIKIWFQNRRMKWKK) [compound 68]”, the “Elispot [nspots/pM]” value [2, 6] is reported as 154,2 nspots/pM.
In the case of 72 (MLFSNITPK) [compound 72], the “Elispot [nspots/pM]” value [2, 5] is reported as 148,0 nspots/pM.
With 5 (IKPRILGFDTPHYWLC) [compound 5] the “Elispot [nspots/pM]” value [2, 7] was 267,5 nspots/pM.
“20 (LQEFRRFQDPGRIVAIVRQIKIWFQNRRMKWKK) [compound 20]” was tested, and the “Elispot [nspots/pM]” value [2, 3] was 500,0 nspots/pM.
